{"source": "patent EP0751947B1", "about": "“GLUCOSIDIC DERIVATIVES OF N-ACYL ALKYLAMINES EXERTING NEUROPROTECTIVE, NEUROTROPHIC AND ANTI-INFLAMMATORY ACTION, USEFUL IN ACUTE AND CHRONIC DISORDERS OF THE CENTRAL NERVOUS SYSTEM CONNECTED WITH EXCITOTOXICITY” (LIFEGROUP S.p.A., priority 1994, dated 1995)", "key": {"granule cells": {"test_system": "granule cells", "assay": "neuroprotective effect against Excitatory Amino Acids (L-glutamic acid)-induced neuronal death in vitro, cell survival by MTT", "type": "cell-based, mouse", "settings": "for survived cells (%): A: Glu 500 µM, 5 min, incubated 24 hrs; for cytoprotection against Glu neurotoxicity: result in words, Glu 500 µM for 5 min, Table 5; for Survived Cells: co-treatment", "procedure": "The compounds being evaluated, referred to as No. 1, 2, 3, 4, 5, 9 and 10 (with reference to the molecules whose syntheses have been described by way of example), Diltiazem, MK 801 and monosialoganglioside GM1, were solubilized in Locke's solution and added to the culture mediums at the desired concentrations according to different treatment schedule indicated in the Tables, with a view to checking: • dose-effect relationship; • time-effect relationship vs. incubation time (start and duration) and exposure to neurotoxin.\nGranule cell cultures were prepared from post natal day 8-9 mouse Balb-6 cerebellum. The cells were suspended in EBM + 2mM L-glutamine, 100 U/ml penicillin, 50 µg/l gentamicin, 25 mM KCl and 10% fetal calf serum, plated on polylysine substrate, cultured for 8-10 days, and exposed to: i) L-glutamic acid (100 µM) at room temperature for 30-40 min. ii) L-glutamic acid (500 µM) at room temperature for 5 min.\nThe compounds being evaluated were incubated at different times (2 hrs before and at the same time as exposure) or for different times ranging from 5 to 60 minutes after exposure to L-glutamic acid. The cultures were then brought back to the original medium and the number of survived cells was assessed by colorimetric method (MTT) 24 hours after excitotoxic stimulation."}, "cerebellar granule cells": {"test_system": "cerebellar granule cells", "assay": "protection against apoptotic neuronal cell death induced by low potassium (KCl 5mM), MTT assay", "type": "cell-based, Mouse", "settings": "compound 100 µM in DMSO 0.2%, MTT 24 hrs later", "procedure": "The compounds as in Ex.3, 5, 8, 9 and 11 and GM1 were solubilized in DMSO 0.2% and added to the cells at the desired concentration.\nMouse (Balb 6, 8-9 post-natal day) cerebellar granule cells were plated in basal Eagle medium (BEM) + 10% fetal calf serum + 25 […] + 2 mM glutamine + 100 µg/ml gentamicine dishes and coated with poly/L lisine. Culture medium was replaced with serum-free medium 6-9 days after plating. […] Neuronal cell survival was measured 24 hrs later by MTT assay."}, "physchem [1]": {"assay": "physchem"}, "solubility in water": {"assay": "solubility in water", "settings": "for solubility: hot water"}, "[2]": {"assay": "solubility in organic solvents", "settings": "ethanol and dmso, organic solvent or mixture"}, "RBL-2H3 cells": {"test_system": "RBL-2H3 cells", "assay": "[3H]serotonin release assay in DNP-HSA stimulated RBL-2H3 cells", "type": "cell-based, Rat", "settings": "co-treatment with DNP-HSA, 15 min; 100 µM or 60 µM (not assigned per compound)", "procedure": "The compounds under evaluation as per Ex. 1, 3, 4, and 9 were dissolved in DMSO 0.2%, while the compound of Ex. 6 was dissolved in DMSO 1%, and they were added at the desired concentration of 100 µM or 60 µM.\nRat basophil leukemia cells of the secreting subline 2H3 were grown in stationary cultures at 37°C in Eagle's minimal essential medium supplemented to contain 2mM L-glutamine, 100 IU/ml penicillin and 20% (v/v) heat-inactivated fetal calf serum (FCS). Cells were passed twice a week.\nA mouse monoclonal IgE which is specific for dinitrophenol (DNP) haptens (clone SPE-7; Sigma) was used. Dinitrophenylated human serum albumin (DNP-HSA) was employed as the triggering agent in these experiments. The level of conjunction was 30-40 moles of DNP per mole of albumin (Sigma). […] The culture supernatants were then collected in Eppendorf tubes, centrifuged (4 min, 3000 rpm) and 50 µl aliquots counted by standard liquid scintillation techniques. The cellular contents of each well were solubilized with 100 µl of 1% Triton X-100 in PBS, and a 50 µl aliquot counted as above. The percent of [3H]serotonin release was calculated.\nBackground (spontaneous) release was normally < 5 % of the total radioactivity incorporated, and was always substracted from the stimulated release value (\"net\" release)."}, "physchem [3]": {"assay": "physchem", "settings": "hot water"}, "[4]": {"settings": "compound 10 µM added 0 min after Glu removal"}}, "data": [{"compound": "COc1ccc([C@@H]2Sc3ccccc3N(CCN(C)C)C(=O)[C@@H]2OC(C)=O)cc1", "note": "[Diltiazem, reference compound]", "values": [{"measurement": "survived cells (%)", "setting": "granule cells; [4]", "value": 35, "unit": "%"}, {"measurement": "cytoprotection against Glu neurotoxicity", "setting": "granule cells", "value": "does not show any significant action"}]}, {"compound": "CCCCCCCCCCCCCCCCCC(=O)NCCO[C@@H]1O[C@H](CO)[C@@H](O)[C@H](O)[C@H]1O", "note": "[Example 11, 2-0-(β-D-glucopyranosyl)-N-stearoyl-aminoethanol]", "values": [{"measurement": "Cell survival (%)", "setting": "cerebellar granule cells", "value": 51, "unit": "%"}, {"measurement": "solubility", "setting": "physchem [1]; dmso and hot isopropyl alcohol", "value": "> 10000", "unit": "µg/mL"}]}, {"compound": "CCCCCCCCCC(=O)NCCO[C@@H]1O[C@H](CO)[C@@H](O)[C@H](O)[C@H]1O", "note": "[Example 8, 2-0-(β-D-glucopyranosyl)-N-decanoyl-aminoethanol]", "values": [{"measurement": "Cell survival (%)", "setting": "cerebellar granule cells", "value": 51, "unit": "%"}, {"measurement": "solubility", "setting": "solubility in water", "value": "> 10000", "unit": "µg/mL"}, {"measurement": "solubility", "setting": "[2]", "value": "> 10000", "unit": "µg/mL"}]}, {"compound": "CCCCCCCCCCCCCCCC(=O)NCCO[C@@H]1O[C@H](CO)[C@@H](O)[C@H](O)[C@H]1O", "note": "[Example 1, 2-O-(β-D-glucopyranosyl)-N-palmitoylaminoethanol]", "values": [{"measurement": "survived cells (%) pre.", "setting": "granule cells; Glu 100 µM, 40 min, room temperature, compound 100 µM added 2 hrs before and then removed, survival after 24 hrs", "value": 44, "unit": "%"}, {"measurement": "survived cells (%) co.", "setting": "granule cells; Glu 100 µM, 40 min, room temperature, compound 100 µM added at the same time, survival after 24 hrs", "value": 57, "unit": "%"}, {"measurement": "survived cells (%) pre.+ co.", "setting": "granule cells; Glu 100 µM, 40 min, room temperature, compound 100 µM, 2 hrs before and at the same time, survival after 24 hrs", "value": 35, "unit": "%"}, {"measurement": "Survived Cells", "setting": "granule cells; Glu 100 µM, room temperature, 40 min, compound 10 µM", "value": 22, "unit": "%"}, {"measurement": "Survived Cells", "setting": "granule cells; Glu 100 µM, room temperature, 40 min, compound 25 µM", "value": 35, "unit": "%"}, {"measurement": "Survived Cells", "setting": "granule cells; Glu 100 µM, room temperature, 40 min, compound 50 µM", "value": 48, "unit": "%"}, {"measurement": "Survived Cells", "setting": "granule cells; Glu 100 µM, room temperature, 40 min, compound 100 µM", "value": 67, "unit": "%"}, {"measurement": "Survived Cells", "setting": "granule cells; Glu 100 µM, room temperature, 40 min, compound 200 µM", "value": 90, "unit": "%"}, {"measurement": "% of inhibition (serotonin net release inhibition)", "setting": "RBL-2H3 cells", "value": 57, "unit": "%"}, {"measurement": "solubility in water", "setting": "solubility in water; at room temperature, result in words", "value": "poorly soluble"}, {"measurement": "solubility", "setting": "solubility in water", "value": "> 10000", "unit": "µg/mL"}, {"measurement": "solubility", "setting": "[2]", "value": "> 10000", "unit": "µg/mL"}]}, {"compound": "CCCCC/C=C\\C/C=C\\C/C=C\\C/C=C\\CCCC(=O)NCCO[C@@H]1O[C@H](CO)[C@@H](O)[C@H](O)[C@H]1O", "note": "[Example 13, 2-0-(β-D-glucopyranosyl)-N-arachidonoyl-aminoethanol]", "values": [{"measurement": "water solubility", "setting": "solubility in water; result in words", "value": "poorly soluble"}, {"measurement": "solubility", "setting": "[2]", "value": "> 10000", "unit": "µg/mL"}]}, {"compound": "O=C(NCCO[C@@H]1O[C@H](CO)[C@H](O)[C@H](O)[C@H]1O)c1ccccc1", "note": "[Example 6, 2-0-(β-D-galactopyranosyl)-N-benzoyl-aminoethanol]", "values": [{"measurement": "% of inhibition (serotonin net release inhibition)", "setting": "RBL-2H3 cells", "value": 54, "unit": "%"}, {"measurement": "solubility", "setting": "solubility in water", "value": "> 10000", "unit": "µg/mL"}, {"measurement": "solubility", "setting": "[2]", "value": "> 10000", "unit": "µg/mL"}]}, {"compound": "monosialoganglioside GM1 [reference compound]", "values": [{"measurement": "survived cells (%)", "setting": "granule cells; compound 100 µM added 0 min after Glu removal", "value": 31, "unit": "%"}, {"measurement": "cytoprotection against Glu neurotoxicity", "setting": "granule cells", "value": "does not show any significant action"}, {"measurement": "Cell survival (%)", "setting": "cerebellar granule cells", "value": 78, "unit": "%"}]}, {"compound": "O=C(CCCCCCCC(=O)NCCO[C@@H]1O[C@H](CO)[C@@H](O)[C@H](O)[C@H]1O)NCCO[C@@H]1O[C@H](CO)[C@@H](O)[C@H](O)[C@H]1O", "note": "[Example 12, N,N'-bis-[2-0-(β-D-glucopyranosyl)-ethyl]-nonanediamide]", "values": [{"measurement": "solubility", "setting": "physchem [1]; dmso", "value": "> 10000", "unit": "µg/mL"}, {"measurement": "solubility", "setting": "physchem [3]", "value": "> 10000", "unit": "µg/mL"}]}, {"compound": "CCCCCCCCCCCC(=O)NCCO[C@H]1O[C@H](CO)[C@@H](O)[C@H](O)[C@H]1O", "note": "[Example 14, 2-0-(α-D-glucopyranosyl)-N-dodecanoyl-aminoethanol]", "values": [{"measurement": "solubility", "setting": "physchem [1]; ethanol and dmso", "value": "> 10000", "unit": "µg/mL"}, {"measurement": "solubility", "setting": "physchem [3]", "value": "> 10000", "unit": "µg/mL"}]}, {"compound": "C[C@]12N[C@H](Cc3ccccc31)c1ccccc12", "note": "[MK 801, reference compound]", "values": [{"measurement": "survived cells (%)", "setting": "granule cells; [4]", "value": 66, "unit": "%"}, {"measurement": "survived cells (%)", "setting": "granule cells; compound 10 µM added 15 min after Glu removal", "value": 32, "unit": "%"}, {"measurement": "survived cells (%)", "setting": "granule cells; compound 10 µM added 30 min after Glu removal", "value": 30, "unit": "%"}, {"measurement": "cytoprotection against Glu neurotoxicity", "setting": "granule cells", "value": "protective, at least partially, only after co-treatment"}]}]}
